Test results reported in US8247569B2, “Cyclohexane derivative and pharmaceutical use thereof” (Toray Industries, Inc., priority 2008, dated 2012).
Where two headings read alike, the source gives them in different places.

Assays:
[1] = system: mouse acetic acid writhing model; assay: mouse acetic acid writhing model (nociceptive pain); assay type: in vivo; conditions: male ddY mice, oral administration 45 min before 0.6% acetic acid i.p., dose suppressing 50% of writhing responses vs vehicle group, vehicle A or B
[2] = evaluation of safety using mice, 5-day repeated oral administration; assay type: in vivo; conditions: for no-observed-adverse-effect-level: Crlj:CD1 (ICR) mice, repeated oral administration for 5 days, assumed value
Experimental: Crlj:CD1 (ICR) mice of 7 weeks old were subjected to repeated oral administration of Example 2-B or Comparative Example 29 for 5 days, and observation of clinical sign, measurement of body weight, hematology, blood chemistry, gross autopsy, measurement of organ weight and histopathology were carried out. Further, on Day 1 and Day 5 after the administration, TK measurement was carried out. Exposure to the respective compounds was confirmed.
The doses of Example 2-B were 0, 40, 200 and 1000 mg/kg/day, and those of Comparative Example 29 were 0, 30, 100 and 300 mg/kg/day. The solution to be administered was prepared using 0.5% aqueous methyl cellulose solution as a vehicle, such that the administration volume becomes 10 mL/kg.

[3] = pharmacokinetics (PK) test in mice; assay type: in vivo; conditions: mouse, plasma, female CD1 (ICR) mice, fasted; for clearance: intravenous, read-out: total body clearance (converted); for bioavailability: oral vs intravenous administration, from dose-normalized AUC0-24 hr, read-out: bioavailability (BA)
Experimental: Example 2-B or Comparative Example 29 was orally administered to mice, and the plasma level after the administration was measured to study the influence of improvement of the metabolic stability in liver microsomes on the change in the plasma level of the compound.
Female CD1 (ICR) mice of 7 weeks old which had been fed ad libitum with pellets (Oriental Yeast Co., Ltd.) and tap water were fasted for 17 hours before the administration. Feeding to the mice was begun again 4 hours after the administration.
In the case of intravenous administration of the solution, the animal was fixed in a holder, and the administration was carried out from the tail vein without anesthesia, using a syringe with an injection needle (25 G) attached thereto. In the case of oral administration, a syringe with a feeding needle attached thereto was used without anesthesia to force the solution into the stomach.
In terms of the mice to which the solution was intravenously administered, blood was collected a total of 8 times from the jugular vein or heart 5, 15 and 30 minutes and 1, 2, 4, 8 and 24 hours after the intravenous administration. In terms of the mice to which the solution was orally administered, blood was collected a total of 8 times from the jugular vein or heart 15, 30 and 45 minutes and 1, 2, 4, 8 and 24 hours after the oral administration. Further, from the jugular vein or heart of mice to which the solution was not administered, blood was collected as a blank. The collected blood was centrifuged at 4° C. at 12000 rpm for 5 minutes, and the obtained mouse plasma and blank plasma were stored at about −20° C. until preparation of samples for analysis. […]
From the results of the LC/MS/MS analysis, a calibration curve was prepared using Analysis 1.4 (Applied Biosystems). Based on the LC/MS/MS analysis and the prepared calibration curve, the concentration in each measurement sample was calculated using Analysis 1.4. For 3 times each of the experiments by intravenous administration and oral administration, the mean plasma level at each time point was calculated, and PK analysis was carried out using the obtained values (FIG. 6 and FIG. 7; each plot indicates the mean plasma level at each time point and its ±standard deviation; i.v. indicates test data by intravenous administration; and p.o. indicates test data by oral administration). The PK parameter was calculated using WinNonlin (Pharsight) by analysis independent of the models (intravenous administration: Model 201, oral administration: Model 200). Further, the bioavailability (BA) was calculated by normalization by dividing AUC0-24 hr from the time point of the intravenous administration or oral administration to the time point of the final blood collection by the dose.

[4] = mouse liver microsomal stability assay; assay type: in vitro ADME; conditions: pH 7.4; mouse liver microsomes 0.5 mg/mL; test compound 2 μmol/L; 37° C., 0-30 min; read-out: Hepatic intrinsic clearance, Mouse
Experimental: (§1) A liver microsomal stability assay, which is known to be an in vitro assay for evaluation of the stability of a compound against hepatic metabolism, was carried out to evaluate the stability of Compound (I) against human and mouse hepatic metabolism.
(§2) A total of 4 times of experiments were carried out for the combinations of the compound of Example 2-B or the compound of Comparative Example 29 as the test compound and human liver microsomes (Xenotech) or mouse liver microsomes (Xenotech) as the liver microsomes.
The respective reagents to be used for the liver microsomal stability assay were prepared as follows. That is, an appropriate amount of D-glucose 6-phosphate disodium salt (hereinafter referred to as G6P) was dissolved in distilled water at 100 mmol/L, to prepare 100 mmol/L aqueous G6P solution. In 5 mL of distilled water, 1000 units of Glucose 6-phosphate dehydrogenase from Yeast (hereinafter referred to as G6PDH) was dissolved, to prepare 200 units/mL aqueous G6PDH solution. An appropriate amount of MgCl2 was dissolved in distilled water at 100 mmol/L, to prepare 100 mmol/L aqueous MgCl2 solution. […]

[5] = system: mouse sciatic nerve-ligation model (Seltzer model); assay: mouse partial sciatic nerve ligation model (Seltzer model), von Frey test; conditions: for von Frey total score compared to the vehicle group: 1 hour after oral administration, doses as in Table 11; for von Frey Total Score Observed 1 Hour after Oral Administration (mean ± standard error), Compound-administered group: n = 5 to 6; for Score improvement rate: 1 hour after administration
[6] = human liver microsomal stability assay; assay type: in vitro ADME; conditions: liver microsomes, pH 7.4, human liver microsomes 0.5 mg/mL, test compound 2 μmol/L, 37° C., 0-30 min
Experimental: as §1, §2
The respective reagents to be used for the liver microsomal stability assay were prepared as follows. That is, an appropriate amount of D-glucose 6-phosphate disodium salt (hereinafter referred to as G6P) was dissolved in distilled water at 100 mmol/L, to prepare 100 mmol/L aqueous G6P solution. In 5 mL of distilled water, 1000 units of Glucose 6-phosphate dehydrogenase from Yeast (hereinafter referred to as G6PDH) was dissolved, to prepare 200 units/mL aqueous G6PDH solution. An appropriate amount of MgCl2 was dissolved in distilled water at 100 mmol/L, to prepare 100 mmol/L aqueous MgCl2 solution. To 500 mL of 200 mmol/L aqueous K2HPO4 solution, 200 mmol/L aqueous KH2PO4 solution (about 130 mL) was added, and pH was adjusted to 7.4, to prepare 200 mmol/L KH2PO4/K2HPO4 buffer pH7.4 (hereinafter referred to as 200 mmol/L PB). β-nicotinamide-adenine dinucleotide phosphate, reduced form, tetrasodium salt (hereinafter referred to as (NADPH) was dissolved in distilled water such that the NADPH content becomes 10 mmol/L based on the purity (Purity NADPH) in the assay data described in the attached document, to prepare 10 mmol/L aqueous NADPH solution.
The liver microsomal stability assay was carried out according to the following procedure. First, the reagents listed in Table 12 (excluding microsomes) were mixed together to prepare a reaction mixture, and the reaction mixture was aliquoted in 130 μL volumes to 4 wells (which play roles as the wells for the 0-minute reaction, well for the 30-minute reaction, well for the 20-minute reaction and well for the 10-minute reaction, respectively) in a 96-well tube plate (BM Equipment Co., Ltd; hereinafter referred to as plate). The entire plate was covered with a silicone cap, and the plate was subjected to preincubation by being soaked in a water bath at 37° C. for 10 minutes.
After the preincubation, 3.75 μL of 20 mg/mL microsome suspension+16.25 μL of distilled water (20 μL in total) were added to the well for the 30-minute reaction, and the plate was covered with the cap, followed by soaking the plate in a water bath at 37° C. to initiate the reaction.
Ten minutes after the beginning of the reaction, 3.75 μL of 20 mg/mL microsome suspension+16.25 μL of distilled water (20 μL in total) were added to the well for the 20-minute reaction, and 20 minutes after the beginning of the reaction, 3.75 μL of 20 mg/mL microsome suspension+16.25 μL of distilled water (20 μL in total) were added to the well for the 10-minute reaction. The reaction was further continued by keeping the plate soaked in the water bath at 37° C.
Thirty minutes after the beginning of the reaction, the plate was removed from the water bath, and 120 μL of acetonitrile was added to each well, followed by covering the plate with the cap, stirring the plate for 10 seconds with Direct Mixer, and stopping the reaction by 10 minutes of ice cooling. After the reaction was stopped, 3.75 μL of 20 mg/mL microsome suspension+16.25 μL of distilled water (20 μL in total) were added to the well for the 0-minute reaction.
The reaction liquid in each well was centrifuged at 4° C. at 2500 rpm for 10 minutes, and the supernatant was transferred to a glass-coated microplate (TOMSIC Plate+) to begin LC/MS/MS analysis. The conditions for the LC/MS/MS analysis were as follows: […]

[7] = read-out: Human hepatic intrinsic clearance

## COc1ccc(-n2nc(C3(O)CCC(O)CC3)cc2-c2ccc(C)cc2)cc1 (stereo not drawn) [Example 2-B, 1-(1-(4-methoxyphenyl)-5-(p-tolyl)-1H-pyrazol-3-yl)cyclohexane-cis-1,4-diol]
[1]
  ED50: 1.40 mg/kg
[2]
  no-observed-adverse-effect-level: 200 mg/kg/day
[2]; mouse, in vivo, po, 1000 mg/kg/day
  toxicity findings: possibilities of induction of hepatotoxicity, effects on immune organs/tissues and induction of gastrointestinal toxicity were suggested
[3]
  clearance: 16.2 mL/min/kg
  bioavailability: 88%

## COc1ccc(-n2nc(C3(O)CCN(C(=O)N(C)O)CC3)c(F)c2-c2ccc(C)cc2)cc1 [Comparative Example 29, 4-(4-Fluoro-1-(4-methoxyphenyl)-5-(4-tolyl)-1H-pyrazol-3-yl)-1-(N-hydroxy-N-methylcarbamoyl)-4-piperidinol, reference compound]
[4]
  microsomal CLint at 2 μmol/L: 267 µL/min/mg
[2]
  no-observed-adverse-effect-level: less than 30 mg/kg/day
[5]; positive controls, gabapentin 30 mg/kg oral, dose of Comparative Example 29 not given
  analgesic effect 3 hours after the oral administration (von Frey test): drastically decreased
[5]; positive controls, gabapentin 30 mg/kg oral, dose of Comparative Example 29 not given, FIGS. 1 to 4
  time of strongest analgesic effect after oral administration (von Frey test): 1 h
[6]; read-out: Hepatic intrinsic clearance, Human
  microsomal CLint at 2 μmol/L: 110 µL/min/mg
[3]
  clearance: 94.5 mL/min/kg
  bioavailability: 54%

## COc1ccc(-c2nc(C3(O)CCC(O)CC3)oc2-c2ccc(OC)cc2)cc1 (single isomer, unassigned) [Example 67-B, 4-(4,5-Bis(4-methoxyphenyl)oxazol-2-yl)cyclohexan-cis-1,4-diol]
[1]; Mus musculus, read-out: ED50
  ED50: 7.32 mg/kg
[5]
  von Frey total score compared to the vehicle group: significantly improved
[5]; dose 10 mg/kg oral, […]
  von Frey Total Score Observed 1 Hour after Oral Administration (mean ± standard error), Compound-administered group: 0.8 ± 0.7
[6]; [7]
  microsomal CLint at 2 μmol/L: 12.7 µL/min/mg

## COc1ccc(-n2nc(C3(O)CCC(C(=O)O)CC3)cc2-c2ccc(C)cc2)cc1 (stereo not drawn) [Example 64, 4-hydroxy-4-(1-(4-methoxyphenyl)-5-p-tolyl-1H-pyrazol-3-yl)-cis-cyclohexanecarboxylic acid]
[1]; Mus musculus, read-out: ED50
  ED50: 1.19 mg/kg
[5]
  von Frey total score compared to the vehicle group: significantly improved
[5]; dose 1 mg/kg oral, vehicle C
  Score improvement rate: 57%
[5]; dose 1 mg/kg oral, vehicle C (0.5% methyl cellulose, suspension)
  von Frey Total Score Observed 1 Hour after Oral Administration (mean ± standard error), Compound-administered group: 2.3 ± 0.5
[6]; [7]
  microsomal CLint at 2 μmol/L: 2.06 µL/min/mg

## COc1ccc(-n2nc(C3(O)CCC(O)CC3)c(Cl)c2-c2ccc(C)cc2)cc1 (stereo not drawn) [Example 59, 1-(4-Chloro-1-(4-methoxyphenyl)-5-(p-tolyl)-1H-pyrazol-3-yl)cyclohexan-cis-1,4-diol]
[1]; Mus musculus, read-out: ED50
  ED50: 9.92 mg/kg
[5]
  von Frey total score compared to the vehicle group: significantly improved
[5]; dose 10 mg/kg oral, vehicle A
  Score improvement rate: 66%
[5]; dose 10 mg/kg oral, […]
  von Frey Total Score Observed 1 Hour after Oral Administration (mean ± standard error), Compound-administered group: 1.7 ± 0.6
[6]; [7]
  microsomal CLint at 2 μmol/L: 44.6 µL/min/mg
